Results: patent US20240252655A1, “DEUBIQUITINASE-TARGETING CHIMERAS AND RELATED METHODS” (Novartis AG, priority 2021, published 2024)

Experiments:
CFTR-OTUB1 complex = CFTR-OTUB1 complex (Homo sapiens, UniProt P13569+Q96FW1, DEL508-508); assay: Native mass spectrometry analysis of ternary complex formation; settings: native MS; recombinant OTUB1 and DF508-harboring CFTR nucleotide-binding domain; 50 μM compound final
Description: FIGS. 15A-15D are images that confirm formation of a ternary complex between CFTR, an exemplary bifunctional compound (Compound 201), and OTUB1 in vitro using recombinant protein and native mass spectrometry (MS)-based approaches. FIGS. 15A-15C depict native mass spectra of CFTR-OTUB1 complex formation in the presence of DMSO (FIG. 15A), the DUB Recruiter Compound 100 alone (FIG. 15B), or the bifunctional compound Compound 201 (FIG. 15C).
Native mass spectrometry experiments were performed on a Thermo QE UHMR equipped with a nano-electrospray ionization source (Advion TriVersa NanoMate). Recombinant OTUB1 was first buffer exchanged into 150 mM ammonium acetate, 100 μM MgCl2, and 100 μM ATP at pH 6.7. 4 μM OTUB1 was then pre-incubated at room temperature for 24 hours with either DMSO, DUB Recruiter Compound 100 (100 μM), or DUBTAc Compound […] (100 μM). After 24 hours, 4 μM CFTR, in the same buffer, was added to the OTUB1 solution, for final concentrations of 2 μM of each protein with either DMSO or 50 μM compound. The solution was then allowed to incubate for 30 minutes prior to analysis on the mass spectrometer. Mass spectra were recorded in positive ion mode with a mass range of 1000-8000 m/z. Each spectrum was then deconvoluted and relevant peaks were integrated to determine % ternary complex formed. All experiments were performed in triplicate.

OTUB1 [1] = biological target: T1, OTUB1 (Homo sapiens, UniProt Q96FW1); assay: Gel-based ABPP: competition against IA-rhodamine labeling of OTUB1; format: binding; settings: pre-incubated with OTUB1 30 min at 37° C.; IA-rhodamine 500 nM, 30 min room temperature; in-gel fluorescence; n=3
Description: Vehicle (DMSO) or an exemplary DUB Recruiter (Compound 100) were pre-incubated with OTUB1 for 30 min at 37° C. prior to IA-rhodamine labeling (500 nM, 30 min room temperature). OTUB1 was then separated by SDS/PAGE and in-gel fluorescence was assessed. Protein loading is illustrated by silver staining. The gel shown is representative gel of n=3 biologically independent samples/group.
Recombinant OTUB1 ([…]) was pre-treated with either DMSO vehicle or covalent ligand or bifunctional compounds at 37° C. for 30 min in 25 μL of PBS, and subsequently treated with of IA-Rhodamine (Setareh Biotech) at room temperature for 1 h. The reaction was stopped by addition of 4× reducing Laemmli SDS sample loading buffer (Alfa Aesar). After boiling at 95° C. for 5 min, the samples were separated on precast 4-20% Criterion TGX gels (Bio-Rad). Probe-labeled proteins were analyzed by in-gel fluorescence using a ChemiDoc MP (Bio-Rad).
A covalent ligand screen of cysteine-reactive libraries competed against IA-rhodamine labeling of a recombinant exemplary deubiquitinase OTUB1 was carried out to identify small molecule binders to OTUB1 by gel-based activity-based protein profiling (ABPP). […] OTUB1 was then separated by SDS/PAGE and in-gel fluorescence was assessed and quantified.
Target sequence in this assay (Q96FW1 whole entry): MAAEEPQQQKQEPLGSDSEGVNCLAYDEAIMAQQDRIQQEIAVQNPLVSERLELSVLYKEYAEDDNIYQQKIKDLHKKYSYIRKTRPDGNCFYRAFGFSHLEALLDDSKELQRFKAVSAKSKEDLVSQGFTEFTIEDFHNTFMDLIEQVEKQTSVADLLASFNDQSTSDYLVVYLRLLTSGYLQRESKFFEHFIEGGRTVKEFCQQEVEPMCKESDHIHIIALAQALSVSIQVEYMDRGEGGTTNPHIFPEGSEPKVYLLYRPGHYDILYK

OTUB1 [2] = biological target: T1, OTUB1; assay: LC-MS/MS analysis of tryptic peptides from OTUB1 covalently bound to DUB Recruiter; format: binding; settings: tryptic peptides from OTUB1 covalently bound to compound
Target sequence in this assay (Q96FW1 whole entry): as above

OTUB1 [3] = biological target: T1, OTUB1; assay: In vitro reconstituted OTUB1 deubiquitination activity assay (monoubiquitin release from di-ubiquitin); format: biochemical; parameters: dose or concentration left out as unconfirmed; settings: in the presence of UBE2D1; OTUB1 pre-incubated with Compound 100 for 1 hr; Western blotting
Description: These studies were performed in the presence of OTUB1-stimulating Ubiquitin-conjugating enzyme E2 D1 (UBE2D1), an E2 ubiquitin ligase that engages in a complex with OTUB1 to stimulate OTUB1 activity.
Previously described methods were used to assess DUB Recruiters effects on OTUB1 activity. Recombinant OTUB1 (500 nM) was pre-incubated with DMSO or Compound 100 […] for 1 hr. To initiate assay pre-treated OTUB1 enzyme was mixed 1:1 with di-Ub reaction mix for final concentrations of 250 nM OTUB1, 1.5 μM di-Ub, 12.5 μM UBE2D1 and 5 mM DTT. The appearance of mono-Ub was monitored by Western blotting over time by removing a portion of the reaction mix and adding Laemmli's buffer to terminate the reaction. Blot shown is a representative gel from n=3 biologically independent experiments/group.
Target sequence in this assay (Q96FW1 whole entry): as above
Target sequence in this assay (P51668 whole entry partner): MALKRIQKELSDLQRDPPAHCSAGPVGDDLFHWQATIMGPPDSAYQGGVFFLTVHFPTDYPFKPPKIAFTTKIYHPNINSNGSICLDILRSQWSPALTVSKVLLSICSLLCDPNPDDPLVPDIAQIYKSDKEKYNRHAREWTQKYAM

Chain of CFTR-OTUB1 complex (Q96FW1 whole entry, stated change not applied, the tested form may be a part): as the sequence (Q96FW1 whole entry) above
Chain of CFTR-OTUB1 complex (P13569 with tags, fused parts or gaps DEL508-508 limits assumed): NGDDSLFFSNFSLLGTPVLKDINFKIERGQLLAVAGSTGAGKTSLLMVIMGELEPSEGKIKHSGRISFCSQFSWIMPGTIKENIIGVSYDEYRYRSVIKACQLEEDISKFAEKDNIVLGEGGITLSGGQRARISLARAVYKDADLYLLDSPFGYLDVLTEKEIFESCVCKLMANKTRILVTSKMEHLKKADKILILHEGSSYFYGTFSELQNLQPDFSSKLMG

Row | Structure (SMILES) | CFTR-OTUB1 complex formation (CFTR-OTUB1 complex) | inhibition of IA-rhodamine binding of OTUB1 (OTUB1 [1]) | cysteine of OTUB1 targeted (covalent modification site) (OTUB1 [2]) | modification of the catalytic C91 of OTUB1 (OTUB1 [2]) | OTUB1 deubiquitination activity (monoubiquitin release from di-ubiquitin) (OTUB1 [3])
1 | C=CC(=O)N1CCN(c2ccc(CCC(=O)NCCCCCNC(=O)c3cccc(-c4nc(NC(=O)C5(c6ccc7c(c6)OC(F)(F)O7)CC5)ccc4C)c3)o2)C(=O)C1 [Compound 201, N-(5-(3-(5-(4-acryloyl-2-oxopiperazin-1-yl)furan-2-yl)propanamido)pentyl)-3-(6-(1-(2,2-difluorobenzo[d][1,3]dioxol-5-yl)cyclopropane-1-carboxamido)-3-methylpyridin-2-yl)benzamide] | significant CFTR-OTUB1 complex formation was observed |  |  |  | 
2 | C=CC(=O)N1CCN(c2ccc(C)o2)C(=O)C1 [Compound 100] | not | dose-responsive inhibition | selectively targets C23 | no detectable modification | does not inhibit
